Article PMC9272924, “Design and synthesis of thiazolidine-2,4-diones hybrids with 1,2-dihydroquinolones and 2-oxindoles as potential VEGFR-2 inhibitors: in-vitro anticancer evaluation and in-silico studies” (Journal of Enzyme Inhibition and Medicinal Chemistry, 2022)
Several values for one entry are separate records, joined by “and”; a condition that tells them apart may be missing. Identical values can stand only once. Entries after “also recorded” stand apart in the source; their conditions may differ.

Key:
Bcl-xl = test: Gene expression by RT-qPCR in Caco-2 cells, Bcl-xl; assay type: cell-based; conditions: Caco-2 treated with 2 µM (IC50 value) of 12a, compared to control cells
Description: (§1) These findings indicate the efficiency of compound 12a in the induction of apoptosis (Figure 4).
(§2) The molecular anticancer mode of action of 12a was investigated by screening their ability to control the gene expression levels of Bcl2, Bcl-xl, TGF and Survivin genes as reported[79] in Supplementary data. […]
(§3) f- Gene expression pattern alternation of cancer cell after 12a treatment The molecular anticancer mode of action of 12a was investigated by screening their ability to affect the gene expression levels of Bcl2, Bcl-xl, TGF and Survivin genes using specific forward and reverse primers and RTq-PCR technique (Table 1) in CaCo-2 cells (chosen as the most sensitive cancer cell line). After cellular treatment, CaCo-2 cell line was cultured into 12 well plates (6×10^3 cell/ml) for 24 h. with the sub- […]
(§4) After treatment, total RNA extraction was performed using RNA extraction kit (Qiagen, Germany). Then, 1 ug of the obtained RNA was used to synthesiz cDNA using cDNA synthesis kit (Promega Corp., Madison, WI) as recommended by the manufacturer. Simultaneously, GAPDH forward and reverse primers (Table 1) were used to amplify the house keeping gene as internal control for standardization of PCR products. The RTq-PCR was done using SYBR Green dye (QuantiTect SYBR Green PCR Kits) and Light Cycler fluorimeter (Bio-RAD S1000 Tm thermal cycler). […]

Bcl2 = test: Gene expression by RT-qPCR in Caco-2 cells, Bcl2; assay type: cell-based; conditions: Caco-2 treated with 2 µM (IC50 value) of 12a, compared to control cells
Description: as §1, §2, §3, §4

TGF = test: Gene expression by RT-qPCR in Caco-2 cells, TGF; assay type: cell-based; conditions: Caco-2 treated with 2 µM (IC50 value) of 12a, compared to control cells
Description: as §1, §2, §3, §4

Survivin = test: Gene expression by RT-qPCR in Caco-2 cells, Survivin; assay type: cell-based; conditions: Caco-2 treated with 2 µM (IC50 value) of 12a, compared to control cells
Description: as §1, §2, §3, §4

MDA-MB-231 = test: In vitro anti-proliferative activity (MTT assay), MDA-MB-231; assay type: cell-based; conditions: for IC50: Homo sapiens, MDA-MB-231, MTT assay, mean of three replicates; for Selectivity index (SI) (MDA-MB-231): SI = Cytotoxicity against Vero cells / Cytotoxicity against MDA-MB-231 cell line
Method: (§5) Target quinolines 8a–c, indolines 12a and 12b were assessed for their potential anti-proliferative effects against a panel of three different cancer cell lines; colon (Caco-2), hepatocellular (HepG2), and breast (MDA-MB-231) cancer cell lines using standard MTT assay protocol. The obtained results confirmed the anti-cancer effects of the tested compounds against the three types of cancerous cell lines, expressed as the median growth inhibitory concentration (IC50), and were presented in Table 1.
(§6) Anti-proliferative activities of the experimented compounds were assessed against Caco-2, HepG-2, and MDA-MB-231 cell lines using MTT assay protocol[54]^,[74] as described in Supplementary data. […]
(§7) a- Mammalian cell lines culture
(§8) WISH, CaCo-2, and A549 cell lines were cultured on DMEM media, meanwhile MDA-MB-231 and hepG-2 cell line were cultured on RBMI media. The cultured media were supplemented with 200 mM L-glutamine, 10.0% fetal bovine serum (Lonza), and 1.0% penicillin/streptomycin. Cells were seeded into 25.0 cm tissue culture flasks and incubated at 37◦C in a 5.0% CO2 incubator for 24 h or till confluency.
(§9) The safety profiles of the tested compounds were checked on one non-cancerous cell line (Vero) to […]
(§10) of 100.0 µl of 6×10^4 cell/ml cells was seeded into each well of a 96-well plate and then the plates were incubated at 37 °C in a humidified 5.0% CO2 incubator for 24 h. At the end of incubation period, the exhausted medium was replaced with 100.0 µl of different concentrations of the designated treatment (prepared in RPMI medium starting from 1.0 mM). The inoculated plates were incubated at the same growth conditions for another 24 h. At the end of incubation, cellular viability was assessed using MTS assay kit (Promega) according to the manual instruction. c- In-vitro anticancer activity
(§11) Anticancer activities of the tested compounds against CaCo-2, MDA-MB-231, and hepG-2 cell lines were quantified using MTS assay kit (Promega) as described by the Manufacturer. d- Selectivity index (SI)
(§12) The selectivity index values of the tested compounds on cancer cells were calculated as described by Koch et al., with slight modifications; SI=IC50nc/IC50cc, where IC50nc: the IC 50 value of the tested compound on normal cells and IC 50cc: IC50 of the te sted compound on cancer cell line . […]

HepG2 = test: In vitro anti-proliferative activity (MTT assay), HepG2; assay type: cell-based; conditions: for IC50: Homo sapiens, HepG2, MTT assay, mean of three replicates; for Selectivity index (SI) (HepG2): SI = Cytotoxicity against Vero cells / Cytotoxicity against HepG2 cell line
Method: as §5, §6, §7, §8, §9, §10, §11, §12

Caco-2 = test: In vitro anti-proliferative activity (MTT assay), Caco-2; assay type: cell-based; conditions: Homo sapiens, Caco-2; MTT assay; mean of three replicates
Method: as §5, §6, §7, §8, §9, §10, §11, §12

[1] = as above; assay type: cell-based; conditions: African green monkey (Vero); human (Caco-2); SI = Cytotoxicity against Vero cells / Cytotoxicity against Caco-2 cell line; read-out: Selectivity index (SI) (Caco-2)
Method: as §5, §6, §7, §8, §9, §10, §11, §12

VEGFR-2 = target: T1, VEGFR-2 (Homo sapiens, UniProt P35968); test: In vitro VEGFR-2 kinase assay (VEGFR-2 ELISA kit); assay type: biochemical; conditions: for HillSlope, best-fit value, VEGFR-2 inhibition / LogIC50, best-fit value, VEGFR-2 inhibition: raw data curve fit, % remaining activity
T1 construct: purchased
Description: To explore the molecular mechanism of the tested compounds as anticancer agents, the compounds were further evaluated to assess their enzymatic inhibitory potential against VEGFR-2.
VEGFR-2 inhibitory activity of the experimented compounds was preceded using a VEGFR-2 ELISA kit as reported and described in Supplementary data.

[2] = Safety assay: in-vitro viability on non-cancerous Vero cell line; assay type: cell-based; conditions: African green monkey, Vero cells (non-cancerous cell line), MTT assay, read-out: Cytotoxicity against Vero (IC50 µM)
Method: An in-vitro viability test was used to investigate the safety patterns of the tested compounds at different concentrations (1.0 mM/mL to 50 µM/mL). The Vero cell line was used as a non-cancerous cell line model to investigate the safety of the synthesised compounds. […] Such values were very high in comparison to the corresponding values on cancer cell lines, which reflect the high in vitro safety profile of the tested members towards non-cancerous cell lines (Table 2). […]
as §7, §8, §9
as §10, with “c- In-vitro anticancer activity” left out
d- Selectivity index (SI)
as §12

Caco-2 cells = test: Cell migration (in-vitro scratch / wound healing) assay; assay type: cell-based
Description: The potential of compound 12a to inhibit the ability of Caco-2 cells to migrate and heal was investigated through the in-vitro scratch assay which is a low-cost easy and well-developed method. The basic concept of this method involves the generation of a scratch in a cancer cell line monolayer, recording the diameter at the beginning, and at regular intervals during cell migration to close that scratch. The obtained results of the treated cell line are then compared to the untreated cell line. Images of scratched areas from the time points; 0, 24 are illustrated in Figure 3.
Regarding the representative control, the scratch was completely closed within 24 h (Figure 3(C)). […] This significant morphological change could be linked to the incidence of apoptosis in the treated cancer cells.
Cell migration assay was fulfilled according to the reported protocol as described[78] in Supplementary data. […]
as §7
as §8, with “confluency. […]” for “confluency.”
e- Wound healing assay (Migration assay)
CaCo-2 cells were grown to 95.0% confluency in a complete DMEM medium and then the wounds were formed using a plastic tip. After washing with pre -warmed PBS, the cells were incubated in the specific medium or the 12a treatment. After incubation at 37°C and 5.0% CO 2 for 24h, the cells were washed with PBS and the wounds distance was determined as the scratch width of the treated and untreated groups using […]

T1 sequence (P35968 20-1356): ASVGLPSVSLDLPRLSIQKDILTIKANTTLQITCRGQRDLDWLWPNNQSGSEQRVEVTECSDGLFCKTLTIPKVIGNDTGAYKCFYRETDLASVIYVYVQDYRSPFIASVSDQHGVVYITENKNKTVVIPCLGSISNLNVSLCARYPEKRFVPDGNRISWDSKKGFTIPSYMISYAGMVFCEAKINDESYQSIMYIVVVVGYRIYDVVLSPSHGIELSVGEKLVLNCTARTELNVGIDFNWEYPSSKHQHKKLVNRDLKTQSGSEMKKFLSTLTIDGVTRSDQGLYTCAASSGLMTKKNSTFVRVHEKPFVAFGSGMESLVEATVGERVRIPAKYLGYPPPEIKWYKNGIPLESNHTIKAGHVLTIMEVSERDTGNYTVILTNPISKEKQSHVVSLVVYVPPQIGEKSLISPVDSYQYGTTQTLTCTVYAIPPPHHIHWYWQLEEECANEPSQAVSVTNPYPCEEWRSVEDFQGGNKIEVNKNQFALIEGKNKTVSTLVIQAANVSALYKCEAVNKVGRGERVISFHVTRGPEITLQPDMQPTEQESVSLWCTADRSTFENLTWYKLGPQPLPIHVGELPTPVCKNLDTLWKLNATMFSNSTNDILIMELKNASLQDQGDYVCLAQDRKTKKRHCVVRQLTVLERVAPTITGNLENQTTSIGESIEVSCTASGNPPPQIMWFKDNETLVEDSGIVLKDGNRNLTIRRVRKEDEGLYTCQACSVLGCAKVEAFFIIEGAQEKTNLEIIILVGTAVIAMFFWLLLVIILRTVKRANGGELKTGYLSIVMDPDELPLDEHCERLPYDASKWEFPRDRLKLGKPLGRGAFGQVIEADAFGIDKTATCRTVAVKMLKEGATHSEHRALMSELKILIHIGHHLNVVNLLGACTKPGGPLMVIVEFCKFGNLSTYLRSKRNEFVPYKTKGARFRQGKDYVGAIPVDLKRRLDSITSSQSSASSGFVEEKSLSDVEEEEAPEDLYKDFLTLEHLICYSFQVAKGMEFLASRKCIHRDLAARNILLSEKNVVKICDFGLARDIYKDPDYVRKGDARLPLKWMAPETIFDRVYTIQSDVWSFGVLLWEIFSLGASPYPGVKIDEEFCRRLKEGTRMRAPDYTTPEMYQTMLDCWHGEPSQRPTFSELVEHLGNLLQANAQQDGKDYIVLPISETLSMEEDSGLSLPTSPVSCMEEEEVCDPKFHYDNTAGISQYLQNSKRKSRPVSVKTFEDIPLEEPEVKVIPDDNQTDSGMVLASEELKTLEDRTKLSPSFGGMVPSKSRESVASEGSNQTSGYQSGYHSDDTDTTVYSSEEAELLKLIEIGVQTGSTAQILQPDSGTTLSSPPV

SMILES | Bcl-xl gene expression (Bcl-xl) | Bcl2 gene expression (Bcl2) | TGF gene expression (TGF) | Survivin gene expression (Survivin) | IC50 (MDA-MB-231) [µM] | Selectivity index (SI) (MDA-MB-231) (MDA-MB-231) | IC50 (HepG2) [µM] | Selectivity index (SI) (HepG2) (HepG2) | IC50 (Caco-2) [µM] | selectivity ratio [1] | HillSlope, best-fit value, VEGFR-2 inhibition (VEGFR-2) | LogIC50, best-fit value, VEGFR-2 inhibition (VEGFR-2) | IC50 at 24 h [2] [µM] | wound diameter of treated Caco-2 cells (Caco-2 cells; 12a at sub IC50 value (1 µM), 24 h, 0.348 mm at 0 h, control scratch completely closed within 24 h) [mm] | scratch closure and cancer cell migration (Caco-2 cells; Caco-2, 1 µM, 24 h) | Caco-2 cell shape (Caco-2 cells; within 24 h) | IC50 (VEGFR-2) [µM]
Cc1ccc(NC(=O)CN2C(=O)S/C(=C3\C(=O)Nc4ccccc43)C2=O)cc1 [Compound 12a, (Z)-2–(2,4-dioxo-5–(2-oxoindolin-3-ylidene)thiazolidin-3-yl)-N-(p-tolyl)acetamide] | significant down-regulation; also recorded: downregulate | significant down-regulation; also recorded: downregulate | upregulation; also recorded: upregulate | significant down-regulation; also recorded: downregulate | 40 ± 0.002 | 18 and 18.25 | 10 ± 0.001 | 73.00 | 2 ± 0.005 | 365 | -0.4584 | 2.066 Log (nM) | 730 ± 0.015 | 0.335 | significantly inhibited the scratch closure and cancer cell migration; also recorded: significantly inhibited the ability of cancer cells to migrate and heal | changed the Caco-2 cell shape from an irregular into the normalised round form; also recorded: changed the cancer cell shape from irregular to a normalised round form | 
COc1cccc2c1C(=O)c1c(O)c3c(c(O)c1C2=O)C[C@@](O)(C(=O)CO)C[C@@H]3O[C@H]1C[C@H](N)[C@H](O)[C@H](C)O1 [Doxorubicin, reference compound] |  |  |  |  | 0.98 ± 0.01 |  | 1.15 ± 0.02 |  | 3.46 ± 0.003 |  |  |  |  |  |  |  | 
O=C(CN1C(=O)SC(=Cc2cc3ccccc3[nH]c2=O)C1=O)NCCc1ccccc1 [Compound 8b, 2–(2,4-Dioxo-5-((2-oxo-1,2-dihydroquinolin-3-yl)methylene)thiazolidin-3-yl)-N-phenethylacetamide] |  |  |  |  | 60 ± 0.003 | 14.83 | 60 ± 0.008 | 14.83 | 150 ± 0.013 | 5.93 | -0.3502 | 1.941 Log (nM) | 890 ± 0.015 |  |  |  | 0.0874
O=C(CN1C(=O)S/C(=C2\C(=O)Nc3ccccc32)C1=O)Nc1ccccc1[N+](=O)[O-] [Compound 12b, (Z)-2–(2,4-dioxo-5–(2-oxoindolin-3-ylidene)thiazolidin-3-yl)-N-(2-nitrophenyl) acetamide] |  |  |  |  | 37 ± 0.002 | 12.97 | 49 ± 0.008 | 9.80 | 120 ± 0.001 | 4 | -0.2985 | 1.925 Log (nM) | 480 ± 40 |  |  |  | 0.0841
Cc1ccc(NC(=O)CN2C(=O)SC(=Cc3cc4ccccc4[nH]c3=O)C2=O)cc1 [Compound 8a, 2–(2,4-Dioxo-5-((2-oxo-1,2-dihydroquinolin-3-yl)methylene)thiazolidin-3-yl)-N-(p-tolyl)acetamide] |  |  |  |  | 150 ± 0.01 | 10.60 | 86 ± 0.001 | 18.49 | 9 ± 0.001 | 177 | -0.4030 | 1.985 Log (nM) | 1590 ± 0.068 |  |  |  | 0.0966
O=C(CN1C(=O)SC(=Cc2cc3ccccc3[nH]c2=O)C1=O)Nc1ccccc1[N+](=O)[O-] [Compound 8c, 2–(2,4-Dioxo-5-((2-oxo-1,2-dihydroquinolin-3-yl)methylene)thiazolidin-3-yl)-N-(2-nitrophenyl)acetamide] |  |  |  |  | 70 ± 0.009 | 5.57 | 156 ± 0.004 | 2.50 | 90 ± 0.004 | 4.33 | -0.3460 | 2.502 Log (nM) | 390 ± 0.02 |  |  |  | 0.318
